Test systems include HCC 2998; HOP-92; SK-MEL-28; LOX IMVI; TK-10; A549; HCT-15; KM12; OVCAR-8; K562; SW-620; SR; A498; OVCAR-3; UACC-257; HL-60; COLO 205.
Holding throughout (assay): DTP human tumour cell line panel, 48 h

Structures are written as SMILES.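 Five compound concentrations were applied to cells in 96-well plates for 48 hours; endpoints were derived by simple linear interpolation of the resulting dose-response curve. GI50: concentration for 50% inhibition of growth.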 Active and inactive are the calls of the source. No stated cut-off is given here; in the data, active = GI50 up to about 1.1 µM and inactive = higher.

Take `CC(=O)Nc1ccc(/C=C/C(=O)c2sc(-n3nc(-c4ccccc4)cc3-c3ccccc3)nc2C)cc1`: the GI50 with HCC 2998, in the assay on HOP-92, with SK-MEL-28, in the assay on LOX IMVI, with TK-10 and in the assay with A549 was > 10 µM (inactive) each time. Moreover, the GI50 in the assay with HCT-15 is over 10 µM; in the assay with KM12, 64.9 µM (inactive); in the assay with OVCAR-8, > 10 µM (inactive); with K562, > 10 µM (inactive); with SW-620 it was > 10 µM (inactive); in the assay with SR it was > 10 µM (inactive). Besides, the GI50 with A498 was > 10 µM (inactive); with OVCAR-3 it was > 10 µM (inactive); with UACC-257 it was 80.9 µM (inactive); with HL-60, > 10 µM (inactive); in the assay with COLO 205, > 10 µM (inactive).
Consider `C=CCC12CC(=O)CCC1c1ccc(OC)cc1C2=O` (stereo unspecified), for which the GI50 in the assay with HCC 2998, in the assay on HOP-92, with SK-MEL-28, in the assay with LOX IMVI, in the assay with TK-10 and in the assay with A549 was > 100 µM (inactive) throughout. Also, the GI50 in the assay with HCT-15 is over 100 µM; in the assay with KM12, > 100 µM (inactive); in the assay on OVCAR-8, > 100 µM (inactive); in the assay with K562, > 100 µM (inactive); with SW-620, > 100 µM (inactive); in the assay with SR it was > 100 µM (inactive). Also, the GI50 with A498, in the assay with OVCAR-3, in the assay on UACC-257, in the assay with HL-60 and in the assay with COLO 205 was > 100 µM (inactive) in each case.
On to `Cn1nc(-c2ccccc2)c2c(/C=C/c3ccccc3)onc2c1=O`, for which the GI50 in the assay with HCC 2998 is 83.6 µM (inactive); in the assay on HOP-92 it was 33 µM (inactive); with SK-MEL-28 it was > 100 µM (inactive); with LOX IMVI it was > 100 µM (inactive); with TK-10 it was > 100 µM (inactive); in the assay on A549, > 100 µM (inactive). The GI50 was over 100 µM in the assay on HCT-15; > 100 µM (inactive) in the assay with KM12; 33.7 µM (inactive) in the assay with OVCAR-8; > 100 µM (inactive) in the assay with K562; 95.7 µM (inactive) with SR; > 100 µM (inactive) in the assay with A498. The GI50 was 50.6 µM (inactive) in the assay on OVCAR-3, > 100 µM (inactive) with UACC-257, > 100 µM (inactive) in the assay with HL-60 and > 100 µM (inactive) with COLO 205.
As to `COc1nc(NC2OCC(O)C(O)C2O)c(NC2OCC(O)C(O)C2O)c(=O)n1C` (stereo unspecified), the GI50 with HCC 2998, in the assay on HOP-92, with SK-MEL-28, in the assay with LOX IMVI, in the assay on TK-10 and in the assay on A549 was > 100 µM (inactive) each time. The GI50 in the assay on HCT-15 was over 100 µM; with KM12, > 100 µM (inactive); with OVCAR-8, > 100 µM (inactive); in the assay with K562 it was > 100 µM (inactive); in the assay on SW-620, > 100 µM (inactive); with SR, > 100 µM (inactive). Moreover, the GI50 in the assay on A498, with OVCAR-3, with UACC-257, with HL-60 and in the assay on COLO 205 was > 100 µM (inactive) each time.
Turning to `O=C1c2cnccc2Cc2cccc3c2N1c1ccccc1S3`, the GI50 was 16.6 µM (inactive) in the assay with HCC 2998; 9.23 µM (inactive) in the assay with HOP-92; 26.1 µM (inactive) with SK-MEL-28; 22.7 µM (inactive) with LOX IMVI; 23.6 µM (inactive) in the assay with A549; 23.3 µM in the assay on HCT-15. The GI50 with KM12 was 19.7 µM (inactive); in the assay on K562, 20.8 µM (inactive); in the assay on SW-620 it was 27.8 µM (inactive); in the assay with SR, 12.4 µM (inactive); with A498, 20.7 µM (inactive); with OVCAR-3, 17.7 µM (inactive). Further, the figures for the GI50 in the assay with UACC-257, in the assay on HL-60 and in the assay with COLO 205 were 23.3 µM (inactive), 21.1 µM (inactive) and 27.4 µM (inactive), respectively.
Turning to `COC(=O)C(=O)C1CCCCC(C2=NC3NN=C(N)N3C2=O)C1=O` (stereo unspecified), the GI50 with HCC 2998, in the assay with HOP-92, with SK-MEL-28, in the assay on LOX IMVI, in the assay on TK-10 and in the assay with A549 was > 100 µM (inactive) throughout. Further, the GI50 in the assay on HCT-15 is over 100 µM; in the assay with KM12, > 100 µM (inactive); in the assay on OVCAR-8, > 100 µM (inactive); in the assay with K562, > 100 µM (inactive); with SW-620, > 100 µM (inactive); in the assay with SR, > 100 µM (inactive). Besides, the GI50 in the assay on A498, in the assay with OVCAR-3, with UACC-257, in the assay with HL-60 and in the assay with COLO 205 was > 100 µM (inactive) each time.
With `CCCCc1c2c(nc3c1CCc1cc4c(nc1-3)-c1nc3c(c(CCCC)c1CC4)CCC/C3=C\c1ccccc1)/C(=C/c1ccccc1)CCC2`, the GI50 is 88.3 µM (inactive) in the assay on HCC 2998; > 100 µM (inactive) in the assay on HOP-92; > 100 µM (inactive) in the assay with SK-MEL-28; > 100 µM (inactive) in the assay on LOX IMVI; 51.2 µM (inactive) in the assay with TK-10; > 100 µM (inactive) with A549. In addition, the GI50 in the assay with HCT-15 is over 100 µM; in the assay with KM12 it was 98.9 µM (inactive); in the assay on OVCAR-8, > 100 µM (inactive); with K562, > 100 µM (inactive); with SW-620, 67 µM (inactive); in the assay on SR, > 100 µM (inactive). Moreover, the GI50 was > 100 µM (inactive) with A498; 40.6 µM (inactive) with OVCAR-3; > 100 µM (inactive) in the assay with UACC-257; 62.1 µM (inactive) with HL-60; > 100 µM (inactive) in the assay on COLO 205.
With `COc1cc(C)c(C)c(OC(=O)c2c(C)c(C)c(OC)c(C)c2OC)c1C`, the GI50 in the assay on HCC 2998 is 13.8 µM (inactive); with HOP-92, 7.19 µM (inactive); in the assay with SK-MEL-28, 20.4 µM (inactive); in the assay with LOX IMVI, 4.75 µM (inactive); with TK-10, 25.6 µM (inactive); with A549, 4.11 µM (inactive). Moreover, the GI50 in the assay with HCT-15 is 3.68 µM; with KM12, 3.31 µM (inactive); with OVCAR-8, 19.5 µM (inactive); with K562, 3.83 µM (inactive); in the assay on SW-620 it was 3.86 µM (inactive); in the assay on SR, 4.23 µM (inactive). In addition, the GI50 with A498 is 16.6 µM (inactive); with OVCAR-3 it was 2.02 µM (inactive); with UACC-257, 17.8 µM (inactive); with HL-60, 10 µM (inactive); in the assay with COLO 205 it was 3.18 µM (inactive).
With `CC(C)OP(=O)(OC(C)C)/C(=N/Nc1ccc([N+](=O)[O-])cc1)NCCN/C(=N\Nc1ccc([N+](=O)[O-])cc1)P(=O)(OC(C)C)OC(C)C`, the GI50 in the assay on HCC 2998 is 5.4 µM (inactive); in the assay on HOP-92, 3.35 µM (inactive); in the assay on SK-MEL-28, 31.3 µM (inactive); in the assay on LOX IMVI, 8.89 µM (inactive); with TK-10 it was 6.03 µM (inactive); with A549 it was 3.72 µM (inactive). For the same compound, the GI50 was 4.61 µM in the assay with HCT-15; 3.8 µM (inactive) in the assay with KM12; 4.55 µM (inactive) in the assay on OVCAR-8; 3.29 µM (inactive) in the assay on K562; 3.76 µM (inactive) in the assay on SW-620; 4.03 µM (inactive) with SR. Also, the GI50 was 3.7 µM (inactive) in the assay with A498; 3.62 µM (inactive) in the assay on OVCAR-3; 6.61 µM (inactive) with UACC-257; 3.94 µM (inactive) with HL-60; 3.93 µM (inactive) in the assay on COLO 205.
With `Cc1c(Cl)ccc2c1NC(=O)C2(O)CC(=O)c1ccc(Cl)cc1` (stereo unspecified), the GI50 was > 42 µM (inactive) with HCC 2998; 69.2 µM (inactive) with HOP-92; > 94.4 µM (inactive) in the assay with SK-MEL-28; 19.7 µM (inactive) in the assay on LOX IMVI; > 100 µM (inactive) with TK-10; > 100 µM (inactive) with A549. The GI50 is 28.2 µM with HCT-15; 51.2 µM (inactive) in the assay with KM12; 34.9 µM (inactive) in the assay on OVCAR-8; 22.8 µM (inactive) in the assay with K562; 29.9 µM (inactive) in the assay with SW-620; 13.9 µM (inactive) in the assay on SR. The GI50 in the assay on A498 was > 43.3 µM (inactive); in the assay on OVCAR-3, 57.3 µM (inactive); with UACC-257 it was 23.7 µM (inactive); in the assay with HL-60 it was 28.6 µM (inactive); with COLO 205, 32.4 µM (inactive).
Consider `COCN(C)c1nc(N(C)C)nc(N(C)C)n1`, for which the GI50 with HCC 2998, with HOP-92, with SK-MEL-28, with LOX IMVI, in the assay with TK-10 and in the assay with A549 was > 100 µM (inactive) each time. Further, the GI50 with HCT-15 is over 100 µM; in the assay on KM12, > 100 µM (inactive); in the assay on OVCAR-8 it was > 100 µM (inactive); in the assay on K562, > 100 µM (inactive); with SW-620 it was > 100 µM (inactive); in the assay on SR it was > 100 µM (inactive). The GI50 in the assay with A498, in the assay with OVCAR-3, in the assay with UACC-257, in the assay on HL-60 and in the assay on COLO 205 was > 100 µM (inactive) throughout.
Turning to `C[C@]12CCC[C@H](Cl)C1(O)C[C@H](C(=O)O)CC2` (stereo partly specified), the GI50 with HCC 2998, with HOP-92, in the assay with SK-MEL-28, in the assay on LOX IMVI, with TK-10 and in the assay with A549 was > 100 µM (inactive) in each case. Also, the GI50 in the assay with HCT-15 is over 100 µM; in the assay on KM12 it was > 100 µM (inactive); with OVCAR-8 it was > 100 µM (inactive); with K562, > 100 µM (inactive); in the assay on SW-620, > 100 µM (inactive); in the assay on SR, > 100 µM (inactive). In addition, the GI50 in the assay on A498, in the assay with OVCAR-3, with UACC-257, in the assay with HL-60 and in the assay on COLO 205 was > 100 µM (inactive) throughout.

A word on the GI50: it is the concentration that inhibits growth by half.

(Values after ChEMBL document CHEMBL1201862, “PubChem BioAssay data set” (2004).)
